Assay results reported in ChEMBL document CHEMBL1201862, “PubChem BioAssay data set” (2004).
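All cell lines were grown in 96-well plates and treated with compound for 48 hours. GI50: concentration for 50% inhibition of growth.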 Calls of active or inactive are those of the source. Cut-off read from the data, not from the text of the source: active = GI50 up to about 1.1 µM and inactive = higher.

Legend:
Experiment in all cases: inhibition of tumour cell growth, NCI panel, 48 h
[1] = system: SNB-19
[2] = system: SF-295
[3] = system: DLD-1
[4] = system: HCT-116
[5] = system: NCI-H522
[6] = system: A549
[7] = system: SK-MEL-28
[8] = system: TK-10
[9] = system: LXFL 529
[10] = system: OVCAR-5
[11] = system: ACHN
[12] = system: NCI-H460
[13] = system: RXF 393
[14] = system: KM12
[15] = system: K562
[16] = system: HCC 2998
[17] = system: A498

Measured: GI50

N#Cc1cccc(C2C(=O)c3ccc(C(=O)c4ccc5c(c4)C(=O)N(c4ccc(Oc6ccc(N7C(=O)c8ccc(C(=O)c9ccc%10c(c9)C(=O)N(c9cccc(C#N)c9)C%10=O)cc8C7=O)cc6)cc4)C5=O)cc3C2=O)c1 (stereo not drawn)
inactive: [1] 82.2 µM | [2] > 100 µM | [3] > 100 µM | [4] > 100 µM | [5] > 100 µM | [6] > 100 µM | [7] > 100 µM | [8] 40.2 µM | [9] > 100 µM | [10] > 100 µM | [11] > 100 µM | [12] > 100 µM | [13] > 100 µM | [14] > 100 µM | [15] > 100 µM | [16] > 100 µM

COC(=O)C1(C(=O)OC)CC(=O)c2cc3c(cc2-c2c(cc(OC)c(OC)c2OC)C1)OCO3
inactive: [1] 55.3 µM | [2] 80.4 µM | [3] > 211 µM | [4] 111 µM | [5] 96.4 µM | [6] > 211 µM | [7] > 211 µM | [8] > 211 µM | [9] 137 µM | [10] 88.3 µM | [11] > 211 µM | [12] > 211 µM | [13] 54.7 µM | [14] 71.6 µM | [15] 139 µM | [16] > 211 µM

CCCCNC(=S)Nn1c(-c2ccccc2)nc2ccccc2c1=O
inactive: [2] > 100 µM | [17] > 100 µM | [3] > 100 µM | [4] > 100 µM | [5] 86.3 µM | [6] > 100 µM | [7] 9.68 µM | [8] > 100 µM | [9] > 100 µM | [10] > 100 µM | [11] > 100 µM | [12] > 100 µM | [13] 24 µM | [14] > 100 µM | [15] 67.1 µM

CCC(=O)N(O)C(C)(C)C
inactive: [1] > 100 µM | [2] > 100 µM | [3] > 100 µM | [4] > 100 µM | [5] > 100 µM | [6] > 100 µM | [7] > 100 µM | [8] > 100 µM | [9] > 100 µM | [10] > 100 µM | [11] > 100 µM | [12] > 100 µM | [13] > 100 µM | [14] > 100 µM | [15] > 100 µM | [16] > 100 µM

O=C(Nc1ccc(F)cc1)C(=O)C(C1OC(=O)c2ccccc21)[N+](=O)[O-] (stereo not drawn)
inactive: [1] > 100 µM | [2] > 100 µM | [17] > 100 µM | [3] > 100 µM | [4] > 100 µM | [6] > 100 µM | [7] > 100 µM | [8] > 100 µM | [9] > 100 µM | [10] > 100 µM | [11] > 100 µM | [12] > 100 µM | [13] > 100 µM | [14] > 100 µM | [15] > 100 µM | [16] > 100 µM

Cc1ccc(NC(=O)/C(=N\NC(N)=S)C(C#N)c2ccccc2C)cc1C (stereo not drawn)
inactive: [1] > 100 µM | [2] > 100 µM | [17] > 100 µM | [3] > 100 µM | [4] > 100 µM | [5] > 100 µM | [6] > 100 µM | [7] > 100 µM | [8] > 100 µM | [9] > 100 µM | [10] > 100 µM | [11] > 100 µM | [12] > 100 µM | [14] > 100 µM | [15] > 100 µM | [16] > 100 µM

CC1CC(=O)c2c(ccc3c2C(=O)c2cccc(O)c2C3=O)C1 (stereo not drawn)
inactive: [1] 12.2 µM | [2] 10.9 µM | [17] 14 µM | [3] 2.94 µM | [4] 5.08 µM | [5] 4.37 µM | [6] 7.16 µM | [7] 13.1 µM | [8] > 10 µM | [9] 4.31 µM | [10] 20.6 µM | [12] 4.62 µM | [14] 12.7 µM | [15] 2.77 µM | [16] 10.4 µM

O=[N+]([O-])c1ccc2nc(/C(=N/Nc3ccccc3)C(O)c3ccco3)c(O)nc2c1 (stereo not drawn)
inactive: [1] > 100 µM | [2] > 100 µM | [17] > 100 µM | [3] > 100 µM | [4] > 100 µM | [5] 9.55 µM | [6] > 100 µM | [9] 42.1 µM | [11] > 100 µM | [12] > 100 µM | [13] 29.5 µM | [14] > 100 µM | [15] > 100 µM | [16] > 100 µM

Cc1c(C#N)c(=O)[nH]c(=O)n1CCN1CCN(C(=O)NCCCCCCNC(=O)N2CCN(CCn3c(C)c(C#N)c(=O)[nH]c3=O)CC2)CC1
inactive: [1] > 100 µM | [2] > 100 µM | [17] > 100 µM | [3] > 100 µM | [4] > 100 µM | [6] > 100 µM | [7] > 100 µM | [8] > 100 µM | [9] > 100 µM | [11] > 100 µM | [12] > 100 µM | [13] > 100 µM | [15] > 100 µM | [16] > 100 µM
